The values below come from article PMC9072010, “Synthesis and bioevaluation of thienopyrimidines bearing a pyrazoline unit as selective PI3Kα inhibitors” (RSC Advances, 2019).

One data set concerns A549 cancer cell lines. Kind of data set: MTT antiproliferative assay, A549. The data set is classed as cell-based, human. (Formazan colour is commonly taken as a measure of viable cells.)
The subject of the next data set is MCF-7 cancer cell lines. Kind of data set: MTT antiproliferative assay, MCF-7. The data set is classed as cell-based, human.
The test system of a further data set is HepG2 cancer cell lines. Description: MTT antiproliferative assay, HepG2. The format is cell-based, human.
The target of a further data set is PI3Kα (Homo sapiens, UniProt P42336). Kind of data set: Kinase-Glo Luminescent Kinase Assay, PI3Kα. The data set is classed as biochemical. As to conditions: average of two separate determinations. The method, then:
The experiment was conducted according to the method reported by our research group.[17]
(In general: In Kinase-Glo more light means more ATP remaining.)

For the next data set, the target named is mTOR (Homo sapiens, UniProt P42345). Kind of data set: Kinase-Glo Luminescent Kinase Assay, mTOR. The data set is classed as biochemical. Conditions: average of two separate determinations.
[1] abbreviates: Homo sapiens, A549, Table 1, average of two separate determinations.
Setting [2] is: Homo sapiens, MCF7, Table 1, average of two separate determinations.
The mark [3] stands for this setting: Homo sapiens, HepG2, Table 1, average of two separate determinations.
[4] abbreviates: Homo sapiens, MCF7, Table 2, average of two separate determinations.
The mark [5] stands for this setting: Homo sapiens, HepG2, Table 2, average of two separate determinations.
[6] abbreviates: Homo sapiens, A549, Table 2, average of two separate determinations.
[7] abbreviates: Table 2, average of two separate determinations.

Sequence of PI3Kα (P42336 whole entry): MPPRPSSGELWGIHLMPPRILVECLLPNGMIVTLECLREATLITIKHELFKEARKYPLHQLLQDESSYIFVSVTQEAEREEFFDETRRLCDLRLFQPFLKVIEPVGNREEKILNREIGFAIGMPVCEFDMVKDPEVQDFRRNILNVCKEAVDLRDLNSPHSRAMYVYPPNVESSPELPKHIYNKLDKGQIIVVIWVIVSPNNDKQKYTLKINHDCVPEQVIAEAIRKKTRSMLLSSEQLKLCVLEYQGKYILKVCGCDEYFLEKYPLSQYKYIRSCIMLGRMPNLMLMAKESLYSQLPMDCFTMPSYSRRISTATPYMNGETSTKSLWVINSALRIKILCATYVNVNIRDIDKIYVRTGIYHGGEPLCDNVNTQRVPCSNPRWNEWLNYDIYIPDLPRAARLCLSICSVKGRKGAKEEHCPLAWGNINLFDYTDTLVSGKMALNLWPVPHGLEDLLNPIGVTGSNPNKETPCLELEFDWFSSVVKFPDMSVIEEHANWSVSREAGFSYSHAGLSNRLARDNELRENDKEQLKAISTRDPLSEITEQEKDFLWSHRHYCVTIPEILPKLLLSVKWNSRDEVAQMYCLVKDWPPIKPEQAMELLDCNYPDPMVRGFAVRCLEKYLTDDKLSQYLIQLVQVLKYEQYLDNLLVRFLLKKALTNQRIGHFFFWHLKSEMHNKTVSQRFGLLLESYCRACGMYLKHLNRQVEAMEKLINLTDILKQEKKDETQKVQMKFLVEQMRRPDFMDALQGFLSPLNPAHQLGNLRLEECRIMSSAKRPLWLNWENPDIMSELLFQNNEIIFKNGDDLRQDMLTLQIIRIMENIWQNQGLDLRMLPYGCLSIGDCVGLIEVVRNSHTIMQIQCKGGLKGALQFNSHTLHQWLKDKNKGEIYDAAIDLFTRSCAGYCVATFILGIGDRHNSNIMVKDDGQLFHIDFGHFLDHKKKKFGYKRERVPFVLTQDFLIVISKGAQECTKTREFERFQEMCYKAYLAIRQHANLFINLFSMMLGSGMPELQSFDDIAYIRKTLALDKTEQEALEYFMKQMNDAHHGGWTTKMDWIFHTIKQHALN
Sequence of PI3Kα (P27986 whole entry partner): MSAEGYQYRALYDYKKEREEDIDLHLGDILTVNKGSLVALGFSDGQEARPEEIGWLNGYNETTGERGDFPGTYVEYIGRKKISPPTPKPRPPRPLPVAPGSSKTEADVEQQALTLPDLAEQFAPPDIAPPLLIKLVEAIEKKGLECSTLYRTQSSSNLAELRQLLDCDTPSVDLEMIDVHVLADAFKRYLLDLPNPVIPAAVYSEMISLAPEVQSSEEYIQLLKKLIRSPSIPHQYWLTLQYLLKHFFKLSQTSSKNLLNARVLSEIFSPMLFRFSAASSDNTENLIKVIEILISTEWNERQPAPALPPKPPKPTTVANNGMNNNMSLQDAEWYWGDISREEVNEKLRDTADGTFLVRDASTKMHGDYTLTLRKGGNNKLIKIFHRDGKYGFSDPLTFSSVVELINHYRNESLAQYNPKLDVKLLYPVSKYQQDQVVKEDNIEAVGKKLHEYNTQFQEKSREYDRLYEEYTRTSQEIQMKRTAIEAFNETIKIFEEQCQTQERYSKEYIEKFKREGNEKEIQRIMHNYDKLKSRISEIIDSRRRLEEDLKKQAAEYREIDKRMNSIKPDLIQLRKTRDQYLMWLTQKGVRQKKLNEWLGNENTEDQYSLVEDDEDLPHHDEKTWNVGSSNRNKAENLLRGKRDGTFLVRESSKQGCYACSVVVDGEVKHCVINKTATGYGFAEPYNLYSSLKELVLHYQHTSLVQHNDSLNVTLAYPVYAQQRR

Usually IC50 stands for the concentration needed to halve the response being measured. A high value points to lower potency. By melting point is commonly meant the temperature of the solid-liquid transition. The compound `c1ccc(-c2ccnn2-c2nc(N3CCOCC3)c3ccsc3n2)cc1` [Compound 7a, 4-(2-(5-Phenyl-1H-pyrazol-1-yl)thieno[2,3-d]pyrimidin-4-yl)morpholine] returned a melting point of 223 to 225 °C. In the data set on A549 cancer cell lines (setting [1]), this compound yielded an IC50 of 37.6 ± 1.88 µM. Besides, the IC50 in the data set on MCF-7 cancer cell lines (setting [2]) was 25.3 ± 0.93 µM. In the data set on HepG2 cancer cell lines (setting [3]), the IC50 is 20.2 ± 1.15 µM.
As to `CS(=O)(=O)N1CCN(Cc2cc3nc(-c4cccc5[nH]ncc45)nc(N4CCOCC4)c3s2)CC1` [GDC-0941, reference compound], the IC50 in the data set with A549 cancer cell lines (setting [1]) turned out to be 6.99 ± 0.21 µM; in the data set on MCF-7 cancer cell lines (setting [2]), 0.07 ± 0.03 µM; with MCF-7 cancer cell lines (setting [4]), 0.2 ± 0.08 µM; with HepG2 cancer cell lines (setting [3]) it was 0.2 ± 0.08 µM; in the data set on HepG2 cancer cell lines (setting [5]), 0.07 ± 0.03 µM.
The compound `CN(C)CCN(C)c1nc(N2N=C(c3ccc(Cl)c(Cl)c3)CC2c2ccc(F)cc2)nc2sccc12` (centres unmarked) [Compound 13d, N ^1-(2-(3-(3,4-Dichlorophenyl)-5-(4-fluorophenyl)-4,5-dihydro-1H-pyrazol-1-yl)thieno[2,3-d]pyrimidin-4-yl)-N^1,N^2,N^2-trimethylethane-1,2-diamine] showed a melting point of 244 to 247 °C. In the data set on A549 cancer cell lines (setting [6]), this compound came in with an IC50 of 9.17 ± 0.32 µM. In the data set on MCF-7 cancer cell lines (setting [4]), this compound returned an IC50 of 6.82 ± 0.17 µM. The compound also came in with an IC50 in the data set with HepG2 cancer cell lines (setting [5]) of 7.27 ± 0.68 µM.
As to `CN(C)CCN(C)c1nc(N2N=C(c3ccc(Br)cc3)CC2c2ccc(F)cc2)nc2sccc12` (centres unmarked) [Compound 13k, N ^1-(2-(3-(4-Bromophenyl)-5-(4-fluorophenyl)-4,5-dihydro-1H-pyrazol-1-yl)thieno[2,3-d]pyrimidin-4-yl)-N^1,N^2,N^2-trimethylethane-1,2-diamine], the melting point fell in the range of 291 to 292 °C. Further, the IC50 in the data set with A549 cancer cell lines (setting [6]) was found to be 22.7 ± 0.35 µM. In the data set with MCF-7 cancer cell lines (setting [4]), it took 18.39 ± 0.18 µM to reach half-maximal inhibition (IC50). In the data set on HepG2 cancer cell lines (setting [5]), this compound had an IC50 of 10.9 ± 0.2 µM.
`COc1ccc(C2CC(c3ccc(F)cc3)=NN2c2nc(N(C)CCN(C)C)c3ccsc3n2)cc1` (centres unmarked) [Compound 13j, N ^1-(2-(3-(4-Fluorophenyl)-5-(4-methoxyphenyl)-4,5-dihydro-1H-pyrazol-1-yl)thieno[2,3-d]pyrimidin-4-yl)-N^1,N^2,N^2-trimethylethane-1,2-diamine] came in with a melting point of 286 to 287 °C. The IC50 in the data set on HepG2 cancer cell lines (setting [5]) turned out to be 83.86 ± 0.17 µM.
Consider `CN(C)CCN(C)c1nc(N2N=C(c3ccc(Cl)c(Cl)c3)CC2c2ccc(Br)cc2)nc2sccc12` (centres unmarked) [Compound 13b, N ^1-(2-(5-(4-Bromophenyl)-3-(3,4-dichlorophenyl)-4,5-dihydro-1H-pyrazol-1-yl)thieno[2,3-d]pyrimidin-4-yl)-N^1,N^2,N^2-trimethylethane-1,2-diamine], for which the melting point lay in the range of 291 to 294 °C. Further, the IC50 in the data set with A549 cancer cell lines (setting [6]) came to 17.43 ± 0.13 µM. The compound further came in with an IC50 in the data set on MCF-7 cancer cell lines (setting [4]) of 12.8 ± 0.23 µM. For the same compound, the IC50 in the data set on HepG2 cancer cell lines (setting [5]) turned out to be 12.9 ± 0.64 µM.
Take `Clc1ccc(-c2ccnn2-c2nc(N3CCOCC3)c3ccsc3n2)cc1` [Compound 7d, 4-(2-(5-(4-Chlorophenyl)-1H-pyrazol-1-yl)thieno[2,3-d]pyrimidin-4-yl)morpholine]: the melting point lay within 280 to 282 °C. Also, the IC50 in the data set with A549 cancer cell lines (setting [1]) was > 100 µM. Further, the IC50 with MCF-7 cancer cell lines (setting [2]) was > 100 µM. Moreover, the 50% inhibitory concentration (IC50) in the data set with HepG2 cancer cell lines (setting [3]) is > 100 µM.
`Clc1ccc(-c2ccnn2-c2nc(N3CCOCC3)c3sccc3n2)cc1` [Compound 4d, 4-(2-(5-(4-Chlorophenyl)-1H-pyrazol-1-yl)thieno[3,2-d]pyrimidin-4-yl)morpholine]: the melting point was in the range of 250 to 251 °C. Moreover, the IC50 with A549 cancer cell lines (setting [1]) was > 100 µM. In addition, the IC50 in the data set with MCF-7 cancer cell lines (setting [2]) was > 100 µM. Further, in the data set with HepG2 cancer cell lines (setting [3]), the IC50 was > 100 µM.
As for “N ^1-(2-(3-(3,4-Dichlorophenyl)-3-phenyl-4,5-dihydro-1H-pyrazol-1-yl)thieno[2,3-d]pyrimidine-4-yl)-N^1, N^2,N^2-trimethylethane-1,2-diamine [Compound 13e]”, the IC50 amounted to 13.4 ± 0.29 µM in the data set on A549 cancer cell lines (setting [7]), 10.5 ± 0.54 µM in the data set on MCF-7 cancer cell lines (setting [7]) and 8.05 ± 0.05 µM with HepG2 cancer cell lines (setting [7]).
On to `c1ccc(-c2ccnn2-c2nc(N3CCOCC3)c3sccc3n2)cc1` [Compound 4a, 4-(2-(5-Phenyl-1H-pyrazol-1-yl)thieno[3,2-d]pyrimidin-4-yl)morpholine], for which the melting point fell in the range of 243.6 to 244.8 °C. Also, the IC50 with A549 cancer cell lines (setting [1]) was > 100 µM. Further, the concentration for half-maximal inhibition (IC50) with MCF-7 cancer cell lines (setting [2]) was > 100 µM. The IC50 with HepG2 cancer cell lines (setting [3]) is > 100 µM.
`CN(C)CCN(C)c1nc(N2N=C(c3ccccc3)CC2c2ccccc2)nc2sccc12` (centres unmarked) [Compound 13i, N ^1-(2-(3,5-Diphenyl-4,5-dihydro-1H-pyrazol-1-yl)thieno[2,3-d]pyrimidin-4-yl)-N^1,N^2,N^2-trimethylethane-1,2-diamine] returned a melting point of 225 to 227 °C. For the same compound, half-maximal inhibition with A549 cancer cell lines (setting [6]) (IC50) was put at 9.43 ± 0.1 µM. The IC50 with MCF-7 cancer cell lines (setting [4]) was found to be 5.04 ± 0.06 µM. The IC50 with HepG2 cancer cell lines (setting [5]) is 6.7 ± 0.14 µM.
The compound `Cc1ccc(-c2ccnn2-c2nc(N3CCOCC3)c3sccc3n2)cc1` [Compound 4b, 4-(2-(5-(p-Tolyl)-1H-pyrazol-1-yl)thieno[3,2-d]pyrimidin-4-yl)morpholine] had a melting point of 166.8 to 171.5 °C. Also, the IC50 in the data set on A549 cancer cell lines (setting [1]) is > 100 µM. Further, the IC50 in the data set with MCF-7 cancer cell lines (setting [2]) was > 100 µM. Also, the IC50 in the data set with HepG2 cancer cell lines (setting [3]) is > 100 µM.
The compound `Fc1ccc(-c2ccnn2-c2nc(N3CCOCC3)c3ccsc3n2)cc1` [Compound 7c, 4-(2-(5-(4-Fluorophenyl)-1H-pyrazol-1-yl)thieno[2,3-d]pyrimidin-4-yl)morpholine] had a melting point of 202 to 205 °C. In addition, in the data set on A549 cancer cell lines (setting [1]), the IC50 is > 100 µM. The 50% inhibitory concentration (IC50) in the data set on MCF-7 cancer cell lines (setting [2]) was > 100 µM. Besides, the 50% inhibitory concentration (IC50) in the data set on HepG2 cancer cell lines (setting [3]) was > 100 µM.
The compound `Cc1ccc(C2CC(c3ccc(Cl)c(Cl)c3)=NN2c2nc(N(C)CCN(C)C)c3ccsc3n2)cc1` (centres unmarked) [Compound 13g, N ^1-(2-(3-(3,4-Dichlorophenyl)-5-(p-tolyl)-4,5-dihydro-1H-pyrazol-1-yl)thieno[2,3-d]pyrimidin-4-yl)-N^1,N^2,N^2-trimethylethane-1,2-diamine] came in with a melting point of 269 to 270 °C. The compound further yielded an IC50 in the data set on A549 cancer cell lines (setting [6]) of 8.75 ± 0.24 µM. The compound also came in with a 50% inhibitory concentration (IC50) in the data set with MCF-7 cancer cell lines (setting [4]) of 4.98 ± 0.04 µM. In the data set with HepG2 cancer cell lines (setting [5]), the IC50 came out at 6.96 ± 0.44 µM. This compound returned an IC50 against PI3Kα of 3.31 ± 0.12 µM. The IC50 at mTOR is > 10 µM.
`Fc1ccc(-c2ccnn2-c2nc(N3CCOCC3)c3sccc3n2)cc1` [Compound 4c, 4-(2-(5-(4-Fluorophenyl)-1H-pyrazol-1-yl)thieno[3,2-d]pyrimidin-4-yl)morpholine] showed a melting point of 228 to 231 °C. Also, the IC50 with A549 cancer cell lines (setting [1]) was > 100 µM. Moreover, the IC50 with MCF-7 cancer cell lines (setting [2]) was > 100 µM. Besides, in the data set on HepG2 cancer cell lines (setting [3]), the IC50 was > 100 µM.
For the compound `CN(C)CCN(C)c1nc(N2N=C(c3ccc(F)cc3)CC2c2ccc(F)cc2)nc2sccc12` (centres unmarked) [Compound 13c, N ^1-(2-(3,5-Bis(4-fluorophenyl)-4,5-dihydro-1H-pyrazol-1-yl)thieno[2,3-d]pyrimidin-4-yl)-N^1,N^2,N^2-tri-methylethane-1,2-diamine], the melting point was in the range of 256 to 257 °C. The compound also gave a 50% inhibitory concentration (IC50) with A549 cancer cell lines (setting [6]) of 9.23 ± 0.02 µM. In the data set on MCF-7 cancer cell lines (setting [4]), this compound showed an IC50 of 6.51 ± 0.31 µM. For the same compound, the concentration for half-maximal inhibition (IC50) in the data set with HepG2 cancer cell lines (setting [5]) was 6.66 ± 0.13 µM. The compound also gave an IC50 on PI3Kα of 4.62 ± 0.54 µM. The IC50 on mTOR was > 10 µM.
In turn, `Cc1ccc(-c2ccnn2-c2nc(N3CCOCC3)c3ccsc3n2)cc1` [Compound 7b, 4-(2-(5-(p-Tolyl)-1H-pyrazol-1-yl)thieno[2,3-d]pyrimidin-4-yl)morpholine] returned a melting point of 286 to 289 °C. In the data set with A549 cancer cell lines (setting [1]), this compound registered an IC50 of 35 ± 0.97 µM. Also, inhibition in the data set with MCF-7 cancer cell lines (setting [2]) was half-maximal at 30.9 ± 1.05 µM (IC50). Moreover, the IC50 in the data set on HepG2 cancer cell lines (setting [3]) is 33.9 ± 1.13 µM.
As for `COc1ccc(C2CC(c3ccc(Cl)c(Cl)c3)=NN2c2nc(N(C)CCN(C)C)c3ccsc3n2)cc1` (centres unmarked) [Compound 13a, N ^1-(2-(3-(3,4-Dichlorophenyl)-5-(4-methoxyphenyl)-4,5-dihydro-1H-pyrazol-1-yl)thieno[2,3-d]pyrimidin-4-yl)-N^1,N^2,N^2-trimethylethane-1,2-diamine], the melting point lay within 232 to 233 °C.
With `Cc1ccc(C2CC(c3ccc(Br)cc3)=NN2c2nc(N(C)CCN(C)C)c3ccsc3n2)cc1` (centres unmarked) [Compound 13h, N ^1-(2-(3-(4-Bromophenyl)-5-(p-tolyl)-4,5-dihydro-1H-pyrazol-1-yl)thieno[2,3-d]pyrimidin-4-yl)-N^1,N^2,N^2-trimethylethane-1,2-diamine], the melting point fell in the range of 272 to 273 °C. The compound further displayed an IC50 in the data set with A549 cancer cell lines (setting [6]) of 5.43 ± 0.17 µM. Moreover, the 50% inhibitory concentration (IC50) in the data set on HepG2 cancer cell lines (setting [5]) was found to be 4.45 ± 0.25 µM. In addition, the IC50 on PI3Kα was 7.16 ± 0.27 µM. The IC50 against mTOR was > 10 µM.
Take `CN(C)CCN(C)c1nc(N2N=C(c3ccc(Br)cc3)CC2c2ccccc2)nc2sccc12` (centres unmarked) [Compound 13l, N ^1-(2-(3-(4-Bromophenyl)-5-phenyl-4,5-dihydro-1H-pyrazol-1-yl)thieno[2,3-d]pyrimidin-4-yl)-N^1,N^2,N^2-trimethylethane-1,2-diamine]: the melting point is 261 to 262 °C. Further, in the data set with A549 cancer cell lines (setting [6]), it took 22.95 ± 0.15 µM to reach half-maximal inhibition (IC50). This compound also yielded an IC50 with MCF-7 cancer cell lines (setting [4]) of 17.2 ± 0.48 µM. Further, the IC50 in the data set with HepG2 cancer cell lines (setting [5]) is 15.8 ± 1.23 µM.
